Assay results: ChEMBL document CHEMBL3425403, “De novo design of caseinolytic protein proteases inhibitors based on pharmacophore and 2D molecular fingerprints” (Bioorg Med Chem Lett, 2015)

System: Staphylococcus aureus
Assay: Inhibition of Staphylococcus aureus caseinolytic protein protease using fluorogenic substrate assessed as residual activity at 10 uM after 15 mins

Compound	Activity [%]
C=CCCCCCCC[C@H]1C(=O)O[C@@H]1CCCCCNC(=O)c1ccc(N(C)C)cc1	30
CCCCCCCCCC[C@@H]1C(=O)O[C@H]1CCSCCCN(C)C	1
C#CCCCOC(=O)NCCCCC	100
CCCCCCCCCC[C@H]1C(=O)O[C@@H]1CCCCS(=O)(=O)CCCN(C)C	13
CCCCCCCCCC[C@H]1C(=O)O[C@@H]1CCCS(=O)(=O)CCC[N+](C)(C)C	7
C=CCCCCCCCCC(=O)OC	96
CCCCCCCCCC[C@H]1C(=O)O[C@@H]1CCCCCS(=O)(=O)CCC[N+](C)(C)C	9
CCCCCCCCCC[C@@H]1C(=O)O[C@H]1CCCCCSCCCN(C)C	1
C#CCCC[C@@H]1OC(=O)[C@H]1CCCCCCCCCCCC	95
C=CCCCCCCCC[C@H]1OC(=O)[C@@H]1CCCCCCCCCNC(=O)OC(C)(C)C	95
CCCCCCCCCC[C@@H]1C(=O)O[C@H]1CCCS(=O)(=O)CCCN(C)C	0
CCCCCCCCCCCC[C@H]1C(=O)O[C@@H]1CCc1ccccc1	95
CCCCCCCCCC[C@H]1C(=O)O[C@@H]1CCS(=O)(=O)CCCN(C)C	37
CCCCCCCCCC[C@@H]1C(=O)O[C@H]1CCS(=O)(=O)CCCN(C)C	1
O=C1OC[C@H]1CCc1ccccc1	108
C#CCCCOC(=O)NCCCCCCCC=C	101

Compound	Activity [%]
CCCCCCCCCC[C@@H]1C(=O)O[C@H]1CCCSCCCN(C)C	40
CCCCCCCCCC[C@@H]1C(=O)O[C@H]1CCCCSCCCN(C)C	0
CCCCCCCCCC[C@H]1C(=O)O[C@@H]1CCCCS(=O)(=O)CCC[N+](C)(C)C	9
CCCCCCCCCC[C@H]1C(=O)O[C@@H]1CCCS(=O)(=O)CCCN(C)C	8
C=CCCCCCCCCC(=O)OC(C)(C)C	103
CCCCCCCCCC[C@@H]1C(=O)O[C@H]1CCCS(=O)(=O)CCC[N+](C)(C)C	0
CCCCCCCCCC[C@@H]1C(=O)O[C@H]1CCCCCS(=O)(=O)CCCN(C)C	5
C=CCCCCCCC[C@H]1C(=O)O[C@@H]1CCCCCCCCCCCNC(=O)OC(C)(C)C	105
CCCCCCCCCC[C@H]1C(=O)O[C@@H]1CCSCCCN(C)C	11
CCCCCCCCCC[C@@H]1C(=O)O[C@H]1CCCCS(=O)(=O)CCCN(C)C	0
C=CCCCCCCC[C@H]1C(=O)O[C@@H]1CCc1cccnc1	0
CCCCCCCCCC[C@@H]1C(=O)O[C@H]1CCCCS(=O)(=O)CCC[N+](C)(C)C	36
CCCCCCCCCC[C@@H]1C(=O)O[C@H]1CCCCCS(=O)(=O)CCC[N+](C)(C)C	1
C=CCCCCCCC[C@H]1C(=O)O[C@@H]1CCc1ccccc1	70
CCCCCCCCCC[C@H]1C(=O)O[C@@H]1CCCCCS(=O)(=O)CCCN(C)C	10
O=C1OC[C@@H]1CCc1ccccc1	108
